Where two headings read alike, the source gives them in different places. Where a SMILES comes first, the peptide text is derived from it. [ ]: non-standard residue; d: D form. The star is where a group is joined. Hexanoyl = CCCCCC(=O)*; Ahx = NCCCCCC(=O)O
How the values were obtained:
[1] = tested on: pulmonary LPS-stimulated rats; experiment: Immune cell infiltration in BALF, LPS acute pulmonary inflammation; format: in vivo, rat; conditions: rat, in vivo
[2] = tested on: pulmonary LPS-stimulated rats; experiment: Cytokine expression in BALF supernatant (multiplex immunoassay), LPS acute pulmonary inflammation; format: in vivo, rat; conditions: 3 mg/kg IP
Rat hippocampal neurons [3] = experiment: Neurite outgrowth assay; format: cell-based
Rat hippocampal neurons [4] = experiment: Synaptogenesis assay; format: cell-based
[5] = tested on: Rat primary cortical neuron cultures; format: cell-based; conditions: for Significance of neuroprotection vs 1 uM LPS: 24 h LPS
[6] = tested on: THP1-differentiated macrophages; format: cell-based, human; parameters: key to Significant reduction in IL-6 / Significant reduction in TNF-α / Significant reduction in IL-1β: NS: indicates a non-significant reduction in the indicated cytokine; +: indicates a p value<0.05 in Tukey post test; ++: indicates a p value<0.01 in Tukey post test; conditions: for Significant reduction in IL-1β / Significant reduction in IL-6 / Significant reduction in TNF-α: 24 hrs LPS
[7] = tested on: LPS-induced cognitive deficit in CD-1 mice; experiment: Rodent LPS model of brain inflammation, T-maze spontaneous alternation; format: in vivo, mouse; conditions: for Recovery (%) / Spontaneous alternation (%) Mean: LPS 250 μg/kg
[8] = tested on: bleomycin-induced pulmonary fibrosis in C57BL/6 mice; experiment: Bleomycin-induced pulmonary fibrosis; format: in vivo, mouse
[9] = 100 mg/kg po BID, right lung homogenate

## C[C@@H]1C[C@H]2[C@@H]3CCC4=CC(=O)C=C[C@]4(C)[C@@]3(F)[C@@H](O)C[C@]2(C)[C@@]1(O)C(=O)CO [Dex, Dexamethasone]
[1]
  Neutrophils in BALF, reduction vs disease control: +++ (key: + = >5% reduction in cell count vs disease control; ++ = >25% reduction in cell count vs disease control; +++ = >75% reduction in cell count vs disease control)
  Total Leukocytes in BALF, reduction vs disease control: +++ (key: + = >5% reduction in cell count vs disease control; ++ = >25% reduction in cell count vs disease control; +++ = >75% reduction in cell count vs disease control)
[2]
  CCL2, significant change in expression in BALF supernatant: + (+ = Significant change in cytokine quantification, p < 0.05 by Student's T-test.)
  CCL3, significant change in expression in BALF supernatant: + (+ = Significant change in cytokine quantification, p < 0.05 by Student's T-test.)
  CCL5, significant change in expression in BALF supernatant: + (+ = Significant change in cytokine quantification, p < 0.05 by Student's T-test.)
  CCL11, significant change in expression in BALF supernatant: + (+ = Significant change in cytokine quantification, p < 0.05 by Student's T-test.)
  CX3CL1, significant change in expression in BALF supernatant: + (+ = Significant change in cytokine quantification, p < 0.05 by Student's T-test.)
  CXCL1, significant change in expression in BALF supernatant: + (+ = Significant change in cytokine quantification, p < 0.05 by Student's T-test.)
  CXCL5, significant change in expression in BALF supernatant: + (+ = Significant change in cytokine quantification, p < 0.05 by Student's T-test.)
  CXCL10, significant change in expression in BALF supernatant: + (+ = Significant change in cytokine quantification, p < 0.05 by Student's T-test.)
  EGF, significant change in expression in BALF supernatant: + (+ = Significant change in cytokine quantification, p < 0.05 by Student's T-test.)
  IFN-γ, significant change in expression in BALF supernatant: + (+ = Significant change in cytokine quantification, p < 0.05 by Student's T-test.)
  IL-1α, significant change in expression in BALF supernatant: + (+ = Significant change in cytokine quantification, p < 0.05 by Student's T-test.)
  IL-1β, significant change in expression in BALF supernatant: + (+ = Significant change in cytokine quantification, p < 0.05 by Student's T-test.)
  IL-5, significant change in expression in BALF supernatant: + (+ = Significant change in cytokine quantification, p < 0.05 by Student's T-test.)
  IL-6, significant change in expression in BALF supernatant: + (+ = Significant change in cytokine quantification, p < 0.05 by Student's T-test.)
  IL-10, significant change in expression in BALF supernatant: + (+ = Significant change in cytokine quantification, p < 0.05 by Student's T-test.)
  IL-12p70, significant change in expression in BALF supernatant: + (+ = Significant change in cytokine quantification, p < 0.05 by Student's T-test.)
  IL-13, significant change in expression in BALF supernatant: + (+ = Significant change in cytokine quantification, p < 0.05 by Student's T-test.)
  IL-17A, significant change in expression in BALF supernatant: + (+ = Significant change in cytokine quantification, p < 0.05 by Student's T-test.)
  TNF-α, significant change in expression in BALF supernatant: + (+ = Significant change in cytokine quantification, p < 0.05 by Student's T-test.)

## HGF: hepatocyte growth factor, used as a positive control at 5 ng/ml
Rat hippocampal neurons [3]
  neurite length / extension of neurites (in words): increase both neurite length and synapse count
Rat hippocampal neurons [3]; 5 ng/ml, Table 4 study
  Significant increase in: Neurite length: +++ (+++ = p < 0.0005)
Rat hippocampal neurons [4]
  synapse counts (in words): increase both neurite length and synapse count
Rat hippocampal neurons [4]; 5 ng/ml, Table 4 study
  Significant increase in: Synapses: ++++ (++++ = p < 0.0001)

## C[C@]12CCC(=O)C[C@@H]1CC[C@@H]1[C@@H]2CC[C@]2(C)[C@@H](O)CC[C@@H]12 [DHT, alpha-dihydrotestosterone, reference compound]
Rat hippocampal neurons [3]
  Significant increase in: Neurite length: + (key: NS = not significant; + = p < 0.05; ++++ = p < 0.0001)

## CCCCCC(=O)N[C@@H](Cc1ccc(O)cc1)C(=O)N[C@H](C(=O)NCCCCCC(N)=O)[C@@H](C)CC [A19 active metabolite, N-hexanoic-Tyr-Ile-(6)aminohexanoic amide] (Hexanoyl-Tyr-Ile-[Ahx]-NH2)
[5]; 0.1 nM
  Significance of neuroprotection vs 1 uM LPS: +++ (+++ indicates p<0.001)
[5]; 1 nM
  Significance of neuroprotection vs 1 uM LPS: ++ (++ indicates p<0.01)
[5]; 10 nM
  Significance of neuroprotection vs 1 uM LPS: +++ (+++ indicates p<0.001)
[5]; 100 nM
  Significance of neuroprotection vs 1 uM LPS: ++ (++ indicates p<0.01)
[5]; 1 μM
  Significance of neuroprotection vs 1 uM LPS: ++ (++ indicates p<0.01)
[5]; at at least one dose tested
  protection of primary neurons from LPS-stimulated inflammatory toxicity: protected primary neurons from LPS-stimulated inflammatory toxicity
Rat hippocampal neurons [3]
  neurite length / extension of neurites (in words): promoted the extension of neurites
Rat hippocampal neurons [3]; 10 nM, Table 3 study
  Significant increase in: Neurite length: ++++ (++++ = p < 0.0001)
[6]; 0.1 nM
  Significant reduction in IL-1β: NS
  Significant reduction in IL-6: NS
  Significant reduction in TNF-α: NS
[6]; 10 nM
  Significant reduction in IL-1β: ++ (indicates a p value<0.01 in Tukey post test)
  Significant reduction in IL-6: + (indicates a p value<0.05 in Tukey post test)
  Significant reduction in TNF-α: + (indicates a p value<0.05 in Tukey post test)
[6]; 1000 nM
  Significant reduction in IL-1β: + (indicates a p value<0.05 in Tukey post test)
  Significant reduction in IL-6: ++ (indicates a p value<0.01 in Tukey post test)
  Significant reduction in TNF-α: ++ (indicates a p value<0.01 in Tukey post test)
[6]; at at least one tested dose
  expression of IL-1β (in words): significantly reduced the expression of IL-1β and TNF-α
  expression of IL-6 (in words): significantly reduced the expression of IL-6
  expression of TNF-α (in words): significantly reduced the expression of IL-1β and TNF-α

## CC12CC3CC(C)(C1)CC(N)(C3)C2 [Memantine, reference compound]
[7]; 0.1 mg/kg i.p. 14 days
  Recovery (%): 76%
  Spontaneous alternation (%) Mean: 63.6%
[7]; 0.1 mg/kg i.p. 14 days, listed as memantine
  Spontaneous alternation (%) Mean: 64%
[7]; 1 mg/kg i.p. 14 days
  Recovery (%): 38%
  Spontaneous alternation (%) Mean: 54.3%
[7]; 1 mg/kg i.p. 14 days, listed as memantine
  Spontaneous alternation (%) Mean: 54%
[7]; T-maze
  significance of reversal of LPS-induced cognitive deficit (in words): significant at both doses

## Cc1ccc(=O)n(-c2ccccc2)c1 [Pirfenidone, reference compound]
[8]; 100 mg/kg po BID, day 21
  Right Lung Weight, improvement versus disease control: + (+ => 5-25% improvement v disease control)
[8]; [9]
  Collagen, improvement versus disease control: ++ (++ => 26-50% improvement v disease control)
  TGF-Beta, improvement versus disease control: +++ (+++ => 51-100% improvement v disease control)
[8]; all doses, day 21
  protection against bleomycin-induced increases in TGF-β (in words): significantly protected against bleomycin-induced increases in TGF-β
[8]; all treatment groups
  protection against body weight loss (in words): did not protect against body weight loss

Source: patent publication US20250161308A1, “Methods of Treating Covid-Related Disorders” (priority 2022, published 2025)
